From PMC5659294 (Pharmacogenetics and genomics, 2017)
Where two headings read alike, the source gives them in different places.

Assay type: in vivo, human

CC/C(=C(\c1ccccc1)c1ccc(OCCN(C)C)cc1)c1ccccc1 [tamoxifen, reference compound]
tamoxifen concentrations by season of sample collection (steady state, tamoxifen 20 mg daily): not different between the seasons

CC/C(=C(\c1ccccc1)c1ccc(OCCNC)cc1)c1ccccc1 [N-desmethyltamoxifen]
Association of season with N-desmethyltamoxifen concentration, β (secondary screen, fall compared to winter): −1.053
Association of weight with N-desmethyltamoxifen concentration, β (secondary screen, greater weight): −0.025

CC/C(=C(\c1ccc(O)cc1)c1ccc(OCCNC)cc1)c1ccccc1 [endoxifen]
Final multivariable model, steady-state endoxifen concentration, B Coefficient (95% Confidence Interval) (CYP2C9 Activity Phenotype): .20 (0.03, 0.37)
Final multivariable model, steady-state endoxifen concentration, B Coefficient (95% Confidence Interval) (CYP2D6 Diplotype IM/IM (vs. NM/NM)): −.87 (−1.4, −.34)
Final multivariable model, steady-state endoxifen concentration, B Coefficient (95% Confidence Interval) (CYP2D6 Diplotype IM/PM (vs. NM/NM)): −.96 (−1.3, −.61)
Final multivariable model, steady-state endoxifen concentration, B Coefficient (95% Confidence Interval) (CYP2D6 Diplotype NM/IM (vs. NM/NM)): −.35 (−.61, −.08)
Final multivariable model, steady-state endoxifen concentration, B Coefficient (95% Confidence Interval) (CYP2D6 Diplotype NM/PM (vs. NM/NM)): −.49 (−.73, −.26)
Final multivariable model, steady-state endoxifen concentration, B Coefficient (95% Confidence Interval) (CYP2D6 Diplotype PM/PM (vs. NM/NM)): −1.32 (−1.79, −.85)
Final multivariable model, steady-state endoxifen concentration, B Coefficient (95% Confidence Interval) (Season of Sample Collection Fall (vs. winter)): −.48 (−.74, −.22)
Final multivariable model, steady-state endoxifen concentration, B Coefficient (95% Confidence Interval) (Season of Sample Collection Summer (vs. winter)): −.49 (−.79, −.19)
Final multivariable model, steady-state endoxifen concentration, B Coefficient (95% Confidence Interval) (Weight (kg)): −.013 (−.02, −.01)
Association of SULT1A1 activity with endoxifen/4-OH-tamoxifen ratio, β (secondary screen, higher SULT1A1 predicted activity phenotype): 0.54
Association of CYP2C8 activity with ratio of endoxifen to N-desmethyltamoxifen, β (secondary screen, increased CYP2C8 predicted activity phenotype): 0.01
Mean Endoxifen (Std. Dev.) (steady state, tamoxifen 20 mg daily, ABCB1 predicted activity phenotype Normal): 7.01 (4.41) n=60 ng/mL
Mean Endoxifen (Std. Dev.) (steady state, tamoxifen 20 mg daily, ABCB1 predicted activity phenotype Poor): 8.93 (7.53) n=37 ng/mL
Mean Endoxifen (Std. Dev.) (steady state, tamoxifen 20 mg daily, ABCC2 predicted activity phenotype Normal): 8.29 (4.99) n=89 ng/mL
Mean Endoxifen (Std. Dev.) (steady state, tamoxifen 20 mg daily, ABCC2 predicted activity phenotype Poor): 9.30 (5.34) n=10 ng/mL
Mean Endoxifen (Std. Dev.) (steady state, tamoxifen 20 mg daily, ABCG2 predicted activity phenotype Normal): 7.90 (5.48) n=249 ng/mL
Mean Endoxifen (Std. Dev.) (steady state, tamoxifen 20 mg daily, ABCG2 predicted activity phenotype Poor): 12.82 (10.85) n=3 ng/mL
Mean Endoxifen (Std. Dev.) (steady state, tamoxifen 20 mg daily, CYP1A1 predicted activity phenotype Normal): 8.05 (5.51) n=248 ng/mL
Mean Endoxifen (Std. Dev.) (steady state, tamoxifen 20 mg daily, CYP1A1 predicted activity phenotype Poor): 3.19 (1.53) n=2 ng/mL
Mean Endoxifen (Std. Dev.) (steady state, tamoxifen 20 mg daily, CYP1A2 predicted activity phenotype Normal): 8.13 (4.48) n=22 ng/mL
Mean Endoxifen (Std. Dev.) (steady state, tamoxifen 20 mg daily, CYP1A2 predicted activity phenotype Poor): 9.57 (6.18) n=6 ng/mL
Mean Endoxifen (Std. Dev.) (steady state, tamoxifen 20 mg daily, CYP2A6 predicted activity phenotype Normal): 7.95 (5.57) n=220 ng/mL
Mean Endoxifen (Std. Dev.) (steady state, tamoxifen 20 mg daily, CYP2A6 predicted activity phenotype Poor): 7.46 (9.71) n=5 ng/mL
Mean Endoxifen (Std. Dev.) (steady state, tamoxifen 20 mg daily, CYP2B6 predicted activity phenotype Normal): 8.11 (5.33) n=151 ng/mL
Mean Endoxifen (Std. Dev.) (steady state, tamoxifen 20 mg daily, CYP2B6 predicted activity phenotype Poor): 8.20 (4.81) n=24 ng/mL
Mean Endoxifen (Std. Dev.) (steady state, tamoxifen 20 mg daily, CYP2C8 predicted activity phenotype Normal): 8.38 (5.72) n=205 ng/mL
Mean Endoxifen (Std. Dev.) (steady state, tamoxifen 20 mg daily, CYP2C8 predicted activity phenotype Poor): 6.71 (5.04) n=13 ng/mL
Mean Endoxifen (Std. Dev.) (steady state, tamoxifen 20 mg daily, CYP2C9 predicted activity phenotype Normal): 8.29 (5.61) n=189 ng/mL
Mean Endoxifen (Std. Dev.) (steady state, tamoxifen 20 mg daily, CYP2C9 predicted activity phenotype Poor): 6.26 (4.82) n=9 ng/mL
Mean Endoxifen (Std. Dev.) (steady state, tamoxifen 20 mg daily, CYP2C19 predicted activity phenotype Normal): 7.64 (5.97) n=109 ng/mL
Mean Endoxifen (Std. Dev.) (steady state, tamoxifen 20 mg daily, CYP2C19 predicted activity phenotype Poor): 7.95 (5.66) n=13 ng/mL
Mean Endoxifen (Std. Dev.) (steady state, tamoxifen 20 mg daily, CYP2E1 predicted activity phenotype Normal): 8.03 (5.40) n=84 ng/mL
Mean Endoxifen (Std. Dev.) (steady state, tamoxifen 20 mg daily, CYP3A4 predicted activity phenotype Normal): 7.78 (5.39) n=288 ng/mL
Mean Endoxifen (Std. Dev.) (steady state, tamoxifen 20 mg daily, CYP3A5 predicted activity phenotype Normal): 8.51 (7.70) n=8 ng/mL
Mean Endoxifen (Std. Dev.) (steady state, tamoxifen 20 mg daily, CYP3A5 predicted activity phenotype Poor): 7.71 (5.29) n=240 ng/mL
Mean Endoxifen (Std. Dev.) (steady state, tamoxifen 20 mg daily, SLCO1B1 predicted activity phenotype Normal): 8.63 (5.57) n=87 ng/mL
Mean Endoxifen (Std. Dev.) (steady state, tamoxifen 20 mg daily, SLCO1B1 predicted activity phenotype Poor): 6.97 (4.21) n=62 ng/mL
Mean Endoxifen (Std. Dev.) (steady state, tamoxifen 20 mg daily, SULT1A1 predicted activity phenotype Normal): 7.56 (4.51) n=111 ng/mL
Mean Endoxifen (Std. Dev.) (steady state, tamoxifen 20 mg daily, SULT1A1 predicted activity phenotype Poor): 7.81 (6.59) n=45 ng/mL
Mean Endoxifen (Std. Dev.) (steady state, tamoxifen 20 mg daily, SULT1A2 predicted activity phenotype Normal): 7.94 (5.23) n=84 ng/mL
Mean Endoxifen (Std. Dev.) (steady state, tamoxifen 20 mg daily, SULT1A2 predicted activity phenotype Poor): 7.72 (5.70) n=74 ng/mL
Mean Endoxifen (Std. Dev.) (steady state, tamoxifen 20 mg daily, UGT2B7 predicted activity phenotype Normal): 7.11 (5.09) n=73 ng/mL
Mean Endoxifen (Std. Dev.) (steady state, tamoxifen 20 mg daily, UGT2B7 predicted activity phenotype Poor): 8.38 (5.36) n=63 ng/mL
Mean Endoxifen (Std. Dev.) (steady state, tamoxifen 20 mg daily, UGT2B15 predicted activity phenotype Normal): 8.07 (5.82) n=71 ng/mL
Mean Endoxifen (Std. Dev.) (steady state, tamoxifen 20 mg daily, UGT2B15 predicted activity phenotype Poor): 7.75 (4.48) n=75 ng/mL
Mean Endoxifen (Std. Dev.) (steady state, tamoxifen 20 mg daily, UGT2B17 predicted activity phenotype Normal): 7.83 (5.25) n=122 ng/mL
Mean Endoxifen (Std. Dev.) (steady state, tamoxifen 20 mg daily, UGT2B17 predicted activity phenotype Poor): 6.60 (5.48) n=35 ng/mL
